# Measured values taken from PMC12655637, “Design, Synthesis, and Mechanistic Study of Novel Ciprofloxacin/Thiazole Chalcone Hybrids as Potential Anticancer Agents” (Pharmaceuticals, 2025).
# What was measured:
# Assay in all cases: NCI-60 screening, one-dose (10 µM) and five-dose, SRB
# HS 578T = assay type: cell-based, human; conditions: Homo sapiens, 10 μM, Breast Cancer, read-out: Growth percentage
# MDA-MB-468 = assay type: cell-based, human; conditions: Homo sapiens, MDA-MB-468, 10 μM; MDA-MB-468, Breast Cancer; read-out: Growth percentage
# Source text: Control cells Test cells FLD
# available usually at NCI library.
# An aliquot of frozen drug concentrate is […]
# SF-539 = assay type: cell-based, human; conditions: Homo sapiens, SF-539, 10 μM; SF-539, CNS Cancer; read-out: Growth percentage
# OVCAR-5 = assay type: cell-based, human; conditions: 10 μM; OVCAR-5, Ovarian Cancer
# SR = assay type: cell-based, human; conditions: 10 μM, Leukemia
# HCT-116 = assay type: cell-based, human; conditions: Homo sapiens, HCT-116, 10 μM; HCT-116, Colon Cancer; read-out: Growth percentage
# U251 = assay type: cell-based, human; conditions: Homo sapiens, U-251; 10 μM; U251, CNS Cancer; read-out: Growth percentage
# SNB-75 = assay type: cell-based, human; conditions: Homo sapiens; 10 μM; SNB-75, CNS Cancer; read-out: Growth percentage
# RXF 393 = assay type: cell-based; conditions: Homo sapiens; 10 μM; RXF 393, Renal Cancer; read-out: Growth percentage
# HT29 = assay type: cell-based, human; conditions: Homo sapiens, HT-29; 10 μM; HT29, Colon Cancer; read-out: Growth percentage
# K-562 = assay type: cell-based, human; conditions: Homo sapiens, K562, 10 μM; K-562, Leukemia; read-out: Growth percentage
# SK-OV-3 = assay type: cell-based, human; conditions: Homo sapiens; 10 μM; SK-OV-3, Ovarian Cancer; read-out: Growth percentage
# HOP-92 = assay type: cell-based, human; conditions: Homo sapiens; 10 μM; HOP-92, Non-Small-Cell Lung Cancer; read-out: Growth percentage
# KM12 = assay type: cell-based, human; conditions: Homo sapiens, KM12, 10 μM; KM12, Colon Cancer; read-out: Growth percentage
# A498 = assay type: cell-based; conditions: Homo sapiens, A498, 10 μM; A498, Renal Cancer; read-out: Growth percentage
# SF-295 = assay type: cell-based, human; conditions: Homo sapiens; 10 μM; SF-295, CNS Cancer; read-out: Growth percentage
# MOLT-4 = assay type: cell-based, human; conditions: Homo sapiens; 10 μM; MOLT-4, Leukemia; read-out: Growth percentage
# MDA-MB231/ATCC = assay type: cell-based; conditions: 10 μM; MDA-MB231/ATCC, Breast Cancer
# BT-549 = assay type: cell-based; conditions: Homo sapiens; 10 μM; BT-549, Breast Cancer; read-out: Growth percentage
# NCI/ADR-RES = assay type: cell-based, human; conditions: Homo sapiens, 10 μM, Ovarian Cancer, read-out: Growth percentage
# CCRF-CEM = assay type: cell-based, human; conditions: Homo sapiens, 10 μM, Leukemia, read-out: Growth percentage
# MDA-MB-435 = assay type: cell-based; conditions: Homo sapiens, MDA-MB-435, read-out: Growth percentage, 10 μM; MDA-MB-435, Melanoma
# ACHN = assay type: cell-based, human; conditions: Homo sapiens, 10 μM, Renal Cancer, read-out: Growth percentage
# T-47D = assay type: cell-based, human; conditions: 10 μM, Breast Cancer
# PC-3 = assay type: cell-based, human; conditions: Homo sapiens; 10 μM; PC-3, Prostate Cancer; read-out: Growth percentage
# EKVX = assay type: cell-based, human; conditions: Homo sapiens, 10 μM, Non-Small-Cell Lung Cancer, read-out: Growth percentage
# HCC-2998 = assay type: cell-based, human; conditions: Homo sapiens; 10 μM; HCC-2998, Colon Cancer; read-out: Growth percentage
# HCT-15 = assay type: cell-based, human; conditions: Homo sapiens; 10 μM; HCT-15, Colon Cancer; read-out: Growth percentage
# A549/ATCC = assay type: cell-based, human; conditions: Homo sapiens, 10 μM, Non-Small-Cell Lung Cancer, read-out: Growth percentage
# TK-10 = assay type: cell-based, human; conditions: Homo sapiens; 10 μM; TK-10, Renal Cancer; read-out: Growth percentage
# NCI-H23 = assay type: cell-based, human; conditions: Homo sapiens; 10 μM; NCI-H23, Non-Small-Cell Lung Cancer; read-out: Growth percentage
Structure (SMILES),activity at 10 µM (HS 578T) [%],activity at 10 µM (MDA-MB-468) [%],activity at 10 µM (SF-539) [%],Growth percentage (OVCAR-5) [%],Growth percentage (SR) [%],activity at 10 µM (HCT-116) [%],activity at 10 µM (U251) [%],activity at 10 µM (SNB-75) [%],activity at 10 µM (RXF 393) [%],activity at 10 µM (HT29) [%],activity at 10 µM (K-562) [%],activity at 10 µM (SK-OV-3) [%],activity at 10 µM (HOP-92) [%],activity at 10 µM (KM12) [%],activity at 10 µM (A498) [%],activity at 10 µM (SF-295) [%],activity at 10 µM (MOLT-4) [%],Growth percentage (MDA-MB231/ATCC) [%],activity at 10 µM (BT-549) [%],activity at 10 µM (NCI/ADR-RES) [%],other results
"Cc1nc(SCC(=O)N2CCN(c3cc4c(cc3F)c(=O)c(C(=O)O)cn4C3CC3)CC2)sc1C(=O)/C=C/c1ccc(N(C)C)cc1 [Compound 4i, (E)-1-Cyclopropyl-7-(4-(2-((5-(3-(4-(dimethylamino)phenyl)acryloyl)-4-methylthiazol-2-yl)thio)acetyl)piperazin-1-yl)-6-fluoro-4-oxo-1,4-dihydroquinoline-3-carboxylic Acid]",81.4,87.6,74.4,102.5,64.5,2.6,48,104,90.5,47.9,61.3,119,91.7,79.4,126,91.4,89.2,73.1,12.9,97.1,activity at 10 µM (CCRF-CEM): 90.6%; activity at 10 µM (MDA-MB-435): 26.6%; activity at 10 µM (ACHN): 97.7%; Growth percentage (T-47D): 88.2%; activity at 10 µM (PC-3): 96.7%; activity at 10 µM (EKVX): 110%; activity at 10 µM (HCC-2998): 44.4%; activity at 10 µM (HCT-15): 83.2%; activity at 10 µM (A549/ATCC): 103%; activity at 10 µM (TK-10): 91.8%; activity at 10 µM (NCI-H23): 76.2%
"COc1ccc(/C=C/C(=O)c2sc(SCC(=O)N3CCN(c4cc5c(cc4F)c(=O)c(C(=O)O)cn5C4CC4)CC3)nc2C)cc1 [Compound 4j, (E)-1-Cyclopropyl-6-fluoro-7-(4-(2-((5-(3-(4-methoxyphenyl)acryloyl)-4-methylthiazol-2-yl)thio)acetyl)piperazin-1-yl)-4-oxo-1,4-dihydroquinoline-3-carboxylic Acid]",96.4,107,97.5,110.0,88.9,103,107,86.2,99.3,108,98.3,115,105,112,117,101,99.7,94.8,102,109,activity at 10 µM (CCRF-CEM): 110%; activity at 10 µM (MDA-MB-435): 108%; activity at 10 µM (ACHN): 97.4%; Growth percentage (T-47D): 94.7%; activity at 10 µM (PC-3): 107%; activity at 10 µM (EKVX): 103%; activity at 10 µM (HCC-2998): 100%; activity at 10 µM (HCT-15): 104%; activity at 10 µM (A549/ATCC): 105%; activity at 10 µM (TK-10): 102%; activity at 10 µM (NCI-H23): 102%
